The values that follow come from publication PMC10285648, “iTAG an optimized IMiD-induced degron for targeted protein degradation in human and murine cells” (iScience, 2023).

Test [1] concerns the target T1, PDE6D (Mus musculus, UniProt O55057+Q8C7D2).
T1 construct: endogenous in cells; host or cells: AT3, 4434, CT26 (mouse); HEK293T run as human control
Kind of test: Western blot validation of PDE6D degradation. It counts as cell-based. Conditions: AT3, 4434 and CT26, 10uM, 24h, western blotting. As to the method: (§1) Figure 6 FPFT2216 induces the degradation of PDE6D in murine cells (A) Proteomes of CT26 cells treated with 10uM of the indicated compounds for 24h and analyzed using quantitative proteomics. Data are plotted as Log2 fold change relative to DMSO versus Log10 of p value. (B) Proteome of CT26 CRBN KO cells treated with 10uM of FPFT2216 for 24h analyzed and plotted as in (A). (C) HEK293T, CT26, AT3 and 4434 cells treated with 10uM of FPFT2216 for 24h in presence of absence of MLN4924. Lysats were analyzed using western blotting. (D) Structural representation of PDE6D with the critical Glycine 28 highlighted in red. (E) CT26, AT3 and 4434 cells transiently expressing WT or G28N mutant Flag-PDE6D treated with 10uM of FPFT2216 for 16h. (F) Docking model for FPFT-2216 (in magenta) in the binding site of mouse CRBN (in orange). H-bond interactions are shown as cyan dashes. (G) Binding model for the ternary complex formed by mouse CRBN (in orange), mouse PDE6D (in cyan) and FPFT-2216 (in magenta), showing the Gly28 loop close to the molecular glue.
(§2) Cells were lysed with SDS lysis buffer (2% SDS, 10% Glycerol, 50mM Tris pH 6.8) and boiled at 95°C for 30min. Protein concentration was measured using Pierce BCA Protein Assay Kit (ThermoFischer) following manufacturer’s recommendations. […]
Background: A western blot detects proteins with antibodies after separation by electrophoresis.

Test [2] concerns the target T2, Flag-PDE6D G28N mutant (Mus musculus, UniProt O55057, G28N).
T2 construct: expressed in transfected cells; host or cells: CT26, AT3 and 4434 murine cells, transient
Kind of test: Degradation of WT or G28N mutant Flag-PDE6D in murine cells. In kind it is cell-based. Conditions: CT26, AT3 and 4434, 10uM, 16h. On the procedure:
as §1
After validating PDE6D degradation, we progressed to identify the critical degron site on the protein. We hypothesized that PDE6D binding to CRBN would require a Gly loop motif and used known structural features of IMiD degrons to map this site in PDE6D (see STAR Methods for details). […]

Test [3] concerns CK1α. Kind of test: Western blot validation of CK1α degradation. In kind it is cell-based, human, mouse. As to conditions: HEK293T versus AT3, 4434, CT26, 10uM, 24h, western blotting. On the procedure: as §1, §2
For test [4], the system named is CT26 cells. Kind of test: Quantitative multiplexed proteomics of CT26 cells treated with thalidomide derivatives. In kind it is cell-based, mouse. Conditions: 24h. On the procedure:
After showing that iTAG was active in mouse cells, we explored whether more potential degrons were active in the murine context. […]2216[50] and profiled the cellular proteomes using quantitative multiplexed proteomics. […] Data are plotted as Log2 fold change relative to DMSO versus Log10 of p value. (B) Proteome of CT26 CRBN KO cells treated with 10uM of FPFT2216 for 24h analyzed and plotted as in (A). (C) HEK293T, CT26, AT3 and 4434 cells treated with 10uM of FPFT2216 for 24h in presence of absence of MLN4924. […] were analyzed using western blotting. (D) Structural representation of PDE6D with the critical […] highlighted in red. (E) CT26, AT3 and 4434 cells transiently expressing WT or […] mutant Flag-PDE6D treated with 10uM of FPFT2216 for 16h. (F) Docking model for FPFT-2216 (in magenta) in the binding site of mouse CRBN (in orange). H-bond interactions are shown as cyan dashes. (G) Binding model for the ternary complex formed by mouse CRBN (in orange), mouse PDE6D (in cyan) and FPFT-2216 (in magenta), showing the […] loop close to the molecular glue. Samples for quantitative proteomics were prepared using the […] workflow.[60] Briefly, the cell pellets were lysed in a buffer containing 150 μL 0.1 M triethylammonium bicarbonate (TEAB), 1% sodium deoxycholate (SDC), 10% isopropanol, 50mM NaCl, 5 mM tris-2-carboxyethyl phosphine (TCEP), 10 mM iodoacetamide (IAA), universal nuclease, and supplemented with protease and phosphatase inhibitors. Samples were bath sonicated for 5 min, incubated at RT for 45 min and protein concentration was measured with the Bradford Protein Assay (Biorad) according to manufacturer instructions. Aliquots containing 30 μg of total protein were used for protein digestion. The resultant peptides were labeled with a tandem mass tag (TMTpro) multiplex reagent vial (Thermo Scientific) according to the manufacturer instructions. All the TMT-labelled samples were combined in equal amounts to a single tube. The TMT-peptide mixture was acidified with 1% formic acid and the precipitated SDC was removed by centrifugation. The sample was then dried with a centrifugal vacuum concentrator. LC-MS analysis was performed on the Dionex Ultimate 3000 UHPLC system coupled with the Orbitrap Lumos mass spectrometer (Thermo Scientific). Samples were analyzed with the EASY-Spray C18 capillary column (75 μm × 50 cm, 2 μm) at 50°C. […] MS3 quantification was obtained with higher-energy collisional dissociation (HCD) fragmentation of the top 5 most abundant CID fragments isolated with synchronous precursor selection (SPS). […] The SEQUEST-HT search engine was used to analyze the acquired mass spectra in Proteome Discoverer 2.4 (Thermo Scientific) for protein identification and quantification. […]

T2 sequence (Q8C7D2 whole entry partner): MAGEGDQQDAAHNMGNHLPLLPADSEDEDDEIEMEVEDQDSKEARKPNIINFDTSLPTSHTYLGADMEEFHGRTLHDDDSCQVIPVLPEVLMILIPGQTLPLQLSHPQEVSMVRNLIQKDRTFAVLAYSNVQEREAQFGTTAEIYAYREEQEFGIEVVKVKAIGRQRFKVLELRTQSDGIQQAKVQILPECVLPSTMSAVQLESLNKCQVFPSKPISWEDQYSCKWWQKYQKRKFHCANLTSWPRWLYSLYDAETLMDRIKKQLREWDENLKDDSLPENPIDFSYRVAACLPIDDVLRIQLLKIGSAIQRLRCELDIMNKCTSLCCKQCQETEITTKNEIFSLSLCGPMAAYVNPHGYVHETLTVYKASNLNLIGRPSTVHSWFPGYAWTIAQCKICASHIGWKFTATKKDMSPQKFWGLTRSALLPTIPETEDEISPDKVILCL
T2 sequence (Q3U1J4 2-1140 partner limits assumed): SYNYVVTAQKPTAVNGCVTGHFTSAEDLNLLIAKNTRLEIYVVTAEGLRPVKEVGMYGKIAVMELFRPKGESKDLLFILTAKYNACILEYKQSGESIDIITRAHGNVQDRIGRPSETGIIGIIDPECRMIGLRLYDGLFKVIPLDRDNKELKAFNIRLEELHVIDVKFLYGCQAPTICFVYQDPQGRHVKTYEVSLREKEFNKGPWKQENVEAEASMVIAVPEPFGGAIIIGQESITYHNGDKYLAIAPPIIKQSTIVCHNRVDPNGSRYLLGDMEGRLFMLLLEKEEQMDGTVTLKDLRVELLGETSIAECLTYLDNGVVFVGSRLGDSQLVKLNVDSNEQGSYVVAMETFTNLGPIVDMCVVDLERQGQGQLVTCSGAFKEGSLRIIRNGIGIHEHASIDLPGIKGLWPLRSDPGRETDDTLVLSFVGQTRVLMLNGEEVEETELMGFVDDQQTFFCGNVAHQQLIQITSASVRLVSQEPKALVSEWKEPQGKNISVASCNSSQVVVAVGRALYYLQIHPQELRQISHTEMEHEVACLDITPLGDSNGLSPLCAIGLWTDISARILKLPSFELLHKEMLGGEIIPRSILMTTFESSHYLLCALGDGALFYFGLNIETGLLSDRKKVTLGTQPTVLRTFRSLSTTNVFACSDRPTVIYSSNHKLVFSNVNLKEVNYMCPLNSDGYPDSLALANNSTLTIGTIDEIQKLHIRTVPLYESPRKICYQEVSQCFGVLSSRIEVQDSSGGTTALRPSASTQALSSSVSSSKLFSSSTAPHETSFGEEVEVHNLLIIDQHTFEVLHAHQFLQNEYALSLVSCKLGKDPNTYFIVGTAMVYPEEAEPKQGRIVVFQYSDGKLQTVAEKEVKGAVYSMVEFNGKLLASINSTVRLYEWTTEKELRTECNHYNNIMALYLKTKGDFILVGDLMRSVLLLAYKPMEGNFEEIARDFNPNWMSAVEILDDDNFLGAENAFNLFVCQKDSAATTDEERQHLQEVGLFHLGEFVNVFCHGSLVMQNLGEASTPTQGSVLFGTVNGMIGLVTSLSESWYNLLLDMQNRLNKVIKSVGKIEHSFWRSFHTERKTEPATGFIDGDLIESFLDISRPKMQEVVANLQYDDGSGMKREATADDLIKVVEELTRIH
T2 sequence (O55057 whole entry G28N): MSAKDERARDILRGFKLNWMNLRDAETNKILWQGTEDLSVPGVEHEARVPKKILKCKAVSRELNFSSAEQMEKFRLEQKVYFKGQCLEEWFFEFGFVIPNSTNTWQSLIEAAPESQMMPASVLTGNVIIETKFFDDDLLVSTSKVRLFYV
T1 sequence (O55057 whole entry): as the sequence (O55057 whole entry G28N) above, with N28G counted along it
T1 sequence (Q8C7D2 whole entry): as the sequence (Q8C7D2 whole entry partner) above
T1 sequence (Q3U1J4 2-1140 partner limits assumed): as the sequence (Q3U1J4 2-1140 partner limits assumed) above

As to `COc1cscc1-c1cn(C2CCC(=O)NC2=O)nn1` (centres unmarked) [FPFT2216], in test [1], the “degradation of PDE6D” value was “induced the degradation of PDE6D”. Further, the “degradation of G28N mutant PDE6D” value in test [2] is listed as “not degraded”. The “degradation of CK1α” value in test [3] is “only degraded in human cells”. Also, the “effect on cellular proteome” value in test [4] (CT26, 10uM) was “strong downregulation of PDE6D, Rab28 and to a much lesser extent CK1α”. The “CRBN dependence of proteome effects” value in test [4] (CT26 CRBN KO cells, 10uM) is listed as “CRBN dependent”.
